What all share (format): in vivo
Assay [1] concerns Tetranychus urticae (spider mites - adult). Nature of the assay: Contact test on spider mites - adult (TUa), French bean leaf, mortality. The settings on record: 72 h, 500 ppm, contact, 3 days, read-out: TUa grading of mortality. In a few lines: (§1)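 Product dissolved in acetone, diluted in water with 0.01% wetting agent to 500, 250 or 100 ppm; pests and/or host medium (plant or foodstuff) treated. Mortality or knockdown assessed 1–3 days later, graded A (80–100%), B (50–79%) or C (<50%).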

Assay [2] relates to Blattella germanica (cockroach nymphs). In words: Contact test on cockroach nymphs (BG/C), Plastic pot, mortality. The settings on record: 48 h, 500 ppm, contact, 2 days, read-out: BG/C grading of mortality. In a few lines: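 Cockroach nymphs and/or their medium were treated with aqueous preparations at 500, 250 or 100 ppm (acetone solution diluted in water with 0.01% Lissapol NX wetting agent). Mortality or knockdown was assessed typically 1–3 days later and graded A (80–100%), B (50–79%) or C (<50%).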

Assay [3] deals with Musca domestica (houseflies - adults). In words: Contact test on houseflies - adults (MD), Cotton wool/sugar, mortality. The settings on record: 72 h, 500 ppm, contact, 3 days, read-out: MD grading of mortality. In a few lines:
as §1

The subject of assay [4] is Tetranychus urticae (spider mites - ova). In words: Contact test on spider mites - ova (TUe), French bean leaf, mortality. The following applies: 144 h, 500 ppm, contact, 6 days, read-out: TUe grading of mortality. Put shortly: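 Graded read-out: A 80-100%, B 50-79%, C below 50% mortality or knockdown, assessed usually 1-3 days post-treatment. Liquid preparations at 500, 250 or 100 ppm by weight, from acetone solution diluted in water with 0.01% wetting agent, applied to pests and/or their host plant or food medium.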

A further assay concerns Myzus persicae (aphids). In words: Contact test on aphids (MP), Chinese Cabbage leaf, mortality. The following applies: 72 h, 500 ppm, contact, 3 days, read-out: MP grading of mortality. Put shortly:
as §1

Assay [5] has as its system Musca domestica (houseflies - adults). In words: Knockdown test on houseflies - adults (MD/KD), Cotton wool/sugar. The settings on record: 500 ppm, 4 hours, read-out: MD/KD grading of knockdown. In a few lines: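 Adult houseflies exposed to the compound at 500, 250 or 100 ppm in acetone/water with 0.01% wetting agent, on a cotton wool/sugar medium. Knockdown and mortality assessed, graded A (80-100%), B (50-79%) or C (<50%).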

Assay [6] concerns Spodoptera exigua (lesser army worm - larvae). In words: Residual test on lesser army worm larvae (SP), Cotton leaf, mortality. The following applies: 48 h, 500 ppm, residual, 2 days, read-out: SP grading of mortality. Put shortly:
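Product dissolved in acetone and diluted in water with 0.01% wetting agent to 500, 250 or 100 ppm; larvae and/or cotton leaf host treated. Mortality or knockdown scored one to three days later and graded A (80-100%), B (50-79%) or C (<50%).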

Assay [7] deals with Diabrotica balteata (rootworm larvae). Nature of the assay: Residual test on rootworm larvae (DB), Filter paper/maize seed, mortality. The following applies: 48 h, 500 ppm, residual, 2 days, read-out: DB grading of mortality. Put shortly:
as §1

For assay [8], the system named is Nephotettix cincticeps (green leaf hopper - nymphs). In words: Contact test on green leaf hopper nymphs (NC), Rice plant, mortality. The settings on record: 48 h, 500 ppm, contact, 2 days, read-out: NC grading of mortality. In a few lines:
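Product dissolved in acetone, diluted in water with 0.01% wetting agent to 500, 250 or 100 ppm; nymphs and/or host rice plants treated. Mortality or knockdown assessed 1–3 days later, graded A (80-100%), B (50-79%), C (<50%).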

Assay [9] concerns Heliothis virescens (tobacco budworm - larvae). In words: Residual test on tobacco budworm larvae (HV), Cotton leaf, mortality. The following applies: 48 h, read-out: HV grading of mortality. In a few lines:
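Product in acetone diluted with water containing 0.01% Lissapol NX, at 500, 250 or 100 ppm; pests and/or host medium (here cotton leaf) treated. Mortality scored one to three days later, graded A (80-100%), B (50-79%), C (<50%).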

Each structure is given as a SMILES string.

With `CCC(C)(C)c1ncc(C(C(=O)OCc2ccc(F)c(Oc3ccccc3)c2)C(C)(C)C)cn1` (racemic) [Compound 68, 4-fluoro-3-phenoxybenzyl (RS)-2-[2-(1,1-dimethylpropyl)pyrimidin-5-yl]-3,3-dimethylbutanoate], the mortality at 500 ppm in [1] is 80 to 100%; in assay [2], < 50%; in [3] it was < 50%; in assay [4], < 50%; in the assay with Myzus persicae (aphids), 80 to 100%; in [6], 50 to 79%. The mortality at 500 ppm in assay [7] is < 50%; in [8] it was 80 to 100%; in assay [9] it was 80 to 100%. Further, in assay [5], the pest or weed control at 500 ppm was < 50%.
With `CC(C)=NOCc1c(F)c(F)c(COC(=O)C(c2cnc(C(C)(C)C)nc2)C(C)(C)C)c(F)c1F` (racemic) [Compound 178, 4-(Prop-2-ylideneaminoxymethyl)-2,3,5,6-tetrafluorobenzyl (RS)-2-[2-(1,1-dimethylethyl)pyrimidin-5-yl]-3,3dimethylbutanoate], the mortality at 500 ppm was 80 to 100% in [1]; < 50% in [2]; < 50% in assay [3]; < 50% in assay [4]; 80 to 100% in the assay with Myzus persicae (aphids); < 50% in assay [6]. The mortality at 500 ppm in [7] is < 50%; in [8], 80 to 100%; in assay [9], < 50%. Further, the pest or weed control at 500 ppm in [5] is < 50%.
With `COCc1c(F)c(F)c(COC(=O)C(c2cnc(-c3ccccc3Cl)nc2)C(C)(C)C)c(F)c1F` (racemic) [Compound 208, 2,3,5,6-tetrafluorbenzyl-4-(methoxymethyl)-benzyl (RS)-2-[2-(2-chlorophenyl)pyrimidin-5-yl]-3,3-dimethylbutanoate], the mortality at 500 ppm was 80 to 100% in assay [1]; < 50% in assay [2]; < 50% in assay [3]; < 50% in assay [4]; 80 to 100% in the assay on Myzus persicae (aphids); < 50% in [6]. In addition, the mortality at 500 ppm in assay [7] was < 50%; in [8], 80 to 100%; in assay [9], < 50%. Also, the pest or weed control at 500 ppm in assay [5] is < 50%.
Turning to `CCOCc1c(F)c(F)c(COC(=O)C(c2cnc(C(C)(C)C)nc2)C(C)(C)C)c(OC)c1F` (racemic) [Compound 187, 2,3,5-trifluoro-6-methoxy-4-(ethoxymethyl)benzyl (RS)-2-[2-(1,1-dimethylethyl)pyrimidin-5-yl]-3,3-dimethylbutanoate], the mortality at 500 ppm in assay [1] was 80 to 100%; in [2], < 50%; in [3], 50 to 79%; in [4] it was < 50%; in the assay on Myzus persicae (aphids), 80 to 100%; in [6], 80 to 100%. The mortality at 500 ppm in assay [7] was < 50%; in assay [8], 80 to 100%; in assay [9], 50 to 79%. In addition, the pest or weed control at 500 ppm in assay [5] was in the range of 80 to 100%.
Turning to `CC(C)OCc1c(F)c(F)c(COC(=O)C(c2cnc(C(C)(C)C)nc2)C(C)(C)C)c(F)c1F` (racemic) [Compound 189, 2,3,5,6-tetrafluoro-4-[(1-methyl)ethoxy]methylbenzyl (RS)-2-[2-(1,1-dimethylethyl)-pyrimidin-5-yl]-3,3dimethylbutanoate], the mortality at 500 ppm in assay [1] was 80 to 100%; in assay [2] it was < 50%; in [3], < 50%; in assay [4], < 50%; in the assay on Myzus persicae (aphids) it was 80 to 100%; in assay [6], 80 to 100%. The mortality at 500 ppm in assay [7] is < 50%; in [8] it was 80 to 100%; in [9], < 50%. Moreover, the pest or weed control at 500 ppm in [5] was 50 to 79%.
As for `Cc1ncc(C(C(=O)OC(C)c2cccc(Oc3ccccc3)n2)C(C)(C)C)cn1` (racemic) [Compound 205, RS-1-(6-phenoxypyrid-2-yl)ethyl (RS)-2-(2-methylpyrimidin-5-yl)-3,3-dimethylbutanoate], the mortality at 500 ppm in [1] was 80 to 100%; in [2], < 50%; in assay [3], < 50%; in assay [4], < 50%; with Myzus persicae (aphids) it was 80 to 100%; in assay [6] it was 80 to 100%. Also, the values for the mortality at 500 ppm in [7], in assay [8] and in [9] were < 50%, 80 to 100% and 80 to 100%, respectively. Also, the pest or weed control at 500 ppm in assay [5] was < 50%.
As for `COCc1c(F)c(F)c(COC(=O)C(c2cnc(C3(C)CC3)nc2)C(C)(C)C)c(F)c1F` (racemic) [Compound 139, 2,3,5,6-tetrafluoro-4-(methoxymethyl)benzyl (RS)-2-[2-(1-methylcyclopropyl)pyrimidin-5-yl]-3,3-dimethylbutanoate], the mortality at 500 ppm was 80 to 100% in assay [1]; 80 to 100% in [2]; 80 to 100% in assay [3]; < 50% in assay [4]; 80 to 100% in the assay on Myzus persicae (aphids); 80 to 100% in [6]. Besides, the mortality at 500 ppm is < 50% in assay [7], 80 to 100% in assay [8] and 80 to 100% in assay [9]. Further, the pest or weed control at 500 ppm in [5] lay in the range of 80 to 100%.
With `CSc1c(F)c(F)c(COC(=O)C(c2cnc(C(C)(C)C)nc2)C(C)(C)C)c(F)c1F` (racemic) [Compound 183], the mortality at 500 ppm was 80 to 100% in assay [1]; < 50% in [2]; 80 to 100% in [3]; < 50% in assay [4]; < 50% in the assay with Myzus persicae (aphids); 80 to 100% in assay [6]. The mortality at 500 ppm in assay [7] was < 50%; in assay [8], 80 to 100%; in assay [9] it was 80 to 100%. Further, in assay [5], the pest or weed control at 500 ppm was in the range of 80 to 100%.
With `COCc1c(F)c(F)c(COC(=O)C(c2cnc(N(C)C)nc2)C(C)(C)C)c(F)c1F` (racemic) [Compound 199], the mortality at 500 ppm (in [1]; in assay [2]; in [3]; in assay [4]; with Myzus persicae (aphids); in assay [6]) was 80 to 100% each time. Also, the mortality at 500 ppm in assay [7] was 50 to 79%; in assay [8], 80 to 100%; in assay [9] it was 80 to 100%. In addition, the pest or weed control at 500 ppm in assay [5] fell in the range of 80 to 100%.
Turning to `CC(C)C(=O)OCc1c(F)c(F)c(COC(=O)C(c2cnc(C(C)(C)C)nc2)C(C)(C)C)c(F)c1F` (racemic) [Compound 173, 4-[(2-methylpropionyl)oxymethyl]-2,3,5,6-tetrafluorobenzyl (RS)-2-[2-(1,1-dimethylethyl)pyrimidin-5-yl]-3,3-dimethylbutanoate], the mortality at 500 ppm in [1] is 80 to 100%; in assay [2] it was < 50%; in assay [3], < 50%; in assay [4] it was < 50%; in the assay on Myzus persicae (aphids), 80 to 100%; in assay [6], 80 to 100%. Besides, the figures for the mortality at 500 ppm in assay [7], in assay [8] and in [9] were < 50%, 80 to 100% and 80 to 100%, respectively. Moreover, in [5], the pest or weed control at 500 ppm was < 50%.
With `C[C@@H](OC(=O)[C@@H](c1cnc(N(C)C)nc1)C(C)(C)C)c1cccc(Oc2ccccc2)n1` (racemic) [Compound 198, (RS)-1-(6-phenoxypyrid-2-yl)ethyl (RS)-2-[2-(N,N-dimethylamino)pyrimidin-5-yl]-3,3-dimethylbutanoate], the mortality at 500 ppm in [1] was 80 to 100%; in assay [2], 80 to 100%; in assay [3] it was < 50%; in assay [4], < 50%; in the assay with Myzus persicae (aphids) it was 80 to 100%; in [6], 80 to 100%. Besides, the mortality at 500 ppm in assay [7], in assay [8] and in [9] was 80 to 100% throughout. Also, the pest or weed control at 500 ppm in [5] was 80 to 100%.

These data come from patent US4962109A, “Insecticidally and acaricidally active pyrimidine esters and intermediates therefor” (Imperial Chemical Industries PLC, priority 1985, dated 1990).
